Laboratory results from patent publication US6869956B2, “Methods of treating inflammatory and immune diseases using inhibitors of IκB kinase (IKK)” (Bristol-Myers Squibb Company, priority 2000, dated 2005).
Counter-ions that a name gives are not always drawn.

Experiments:
[1] = molecular target: T1, recombinantly expressed IKK-1 (Homo sapiens, UniProt O15111); test: IKK-1 enzyme assay (33P-ATP / IκB-α phosphorylation); type: biochemical; settings: 33P-labeled ATP and IκB-α as substrates
T1 construct: made in house
T1 sequence (O15111 1-745): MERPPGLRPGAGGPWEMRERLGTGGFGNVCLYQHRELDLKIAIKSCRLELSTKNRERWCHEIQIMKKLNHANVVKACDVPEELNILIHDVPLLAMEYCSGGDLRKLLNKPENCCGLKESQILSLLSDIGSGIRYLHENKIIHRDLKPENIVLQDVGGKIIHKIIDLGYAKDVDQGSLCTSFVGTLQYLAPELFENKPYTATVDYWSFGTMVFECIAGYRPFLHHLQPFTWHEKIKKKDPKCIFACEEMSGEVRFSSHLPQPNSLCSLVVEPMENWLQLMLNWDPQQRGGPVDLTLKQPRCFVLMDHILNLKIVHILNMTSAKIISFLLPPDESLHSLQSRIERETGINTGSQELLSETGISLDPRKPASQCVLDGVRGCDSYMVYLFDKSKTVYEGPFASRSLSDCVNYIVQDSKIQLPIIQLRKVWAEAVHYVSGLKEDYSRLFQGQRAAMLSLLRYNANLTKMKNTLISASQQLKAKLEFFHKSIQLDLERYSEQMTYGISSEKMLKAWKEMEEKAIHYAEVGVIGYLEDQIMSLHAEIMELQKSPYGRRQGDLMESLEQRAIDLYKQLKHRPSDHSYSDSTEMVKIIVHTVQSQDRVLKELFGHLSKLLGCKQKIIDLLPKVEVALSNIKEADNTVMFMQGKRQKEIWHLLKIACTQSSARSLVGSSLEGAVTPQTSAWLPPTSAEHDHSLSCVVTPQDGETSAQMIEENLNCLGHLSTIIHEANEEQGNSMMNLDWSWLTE
Description: In this assay, test compound was added to a solution of 0.5 mM IκB-α in 40 mM Tris-HCl, pH 8, containing 4 mM MgCl2, 1 mM dithiothreitol, and 2 mM ^33P-labeled ATP. IKK enzyme (either the multisubunit complex from HeLa cells, recombinantly expressed IKK-1, or recombinantly expressed IKK-2) was then added to initiate the reaction. The multisubunit complex was isolated according to the procedure of Lee et al. [(1997) Cell 88:213-222] or Mercurio et al. [(1997) 278:860-866]. The recombinant IKK-1 and IKK-2 were expressed using the procedure of Burke et al. [(1999) J. Biol. Chem. 274:36146-36152]. After incubating for 10 minutes at 30° C., the reaction was quenched by the addition of EDTA to a final concentration of 30 mM. In order to separate the phosphorylated IκB-α (Santa Cruz Biotechnology; Santa Cruz, Calif.) product from unreacted ATP, sodium dodecylsulfate polyacrylamide gel electrophoresis (SDS-PAGE) was performed. Phosphoimager analysis of the amount of ^33P incorporation into IκB-α was executed using a Molecular Dynamics 445 Phosphoimager, and the inhibition of IKK activity by the test compound was calculated from control samples containing no inhibitor.

Row | SMILES | IC50 [1] | melting point
1 | Cn1cnc2c(NCCN)nc3cc4ccccc4cc3c21 [Example 17] | 1000 nM | –
2 | Cc1cnc2c(NCCN3CCCCC3)nc3cc4ccccc4cc3n12 [Example 19, 1-methyl-4-(2-piperidin-1-yl-ethylamino)benzo[g]imidazo[1,2-a]quinoxaline] | 1700 nM | 170 to 172 °C
3 | CNCCNc1nc2cc3ccccc3cc2n2c(C)cnc12 (as salt: hydrochloride) [Example 13, 1-methyl-4-(2-N-methylaminoethylamino)benzo[g]imidazo[1,2-a]quinoxaline Hydrochloride] | – | 265 to 275 °C (dec.)
4 | Cc1cnc2c(NCCO)nc3cc4ccccc4cc3n12 [Example 18, 1-methyl-4-(2-hydroxyethylamino)benzo[g]imidazo[1,2-a]quinoxaline] | – | 186 to 188 °C

Now from value to molecule:

Row | IC50 [1] | melting point | SMILES
5 | 350 nM | – | CNCCNc1nc2cc3ccccc3cc2n2c(C)cnc12 [Example 13, 1-methyl-4-(2-N-methylaminoethylamino)benzo[g]imidazo[1,2-a]quinoxaline Hydrochloride]
6 | 230 nM | 201 to 202 °C | CNc1nc2cc3ccccc3cc2n2c(C)cnc12 [Example 12, 1-methyl-4-methylaminobenzo[g]imidazo[1,2-a]quinoxaline]
7 | 800 nM | – | CNc1nc2cc3ccccc3cc2c2c1ncn2C [Example 16, 1-methyl-4-methylaminobenzo(g)imidazo(4,5-c)quinoline]
8 | 670 nM | – | CNc1nc2cc3ccccc3cc2c2c(C)cnn12 [Example 14, 1-methyl-4-methylaminobenzo[g]pyrazolo[1,5-c]quinazoline]
